# From patent EP0414894A1 (priority 1989, dated 1990)
# Several values for one entry are separate records, joined by “and”; a condition that tells them apart may be missing. Equal values may be shown once. Read-outs that look alike come from different tables or passages of the source.
# Experiments:
# [1] = system: domestic flies; assay: insecticidal activity, full-scale (large-scale) test in premises; assay type: in vivo; conditions: 2% solution, 2-3 dishes per 20 m²; 72 hours
# Protocol: The full-scale tests for activity of the insecticidal composition of the invention to domestic flies in habitable and industrial premises were carried out as follows. The Petri dishes containing a 2% solution of the insecticidal composition of the invention were located according 2-3-dishes per 20 m². The composition activity was evaluated by a direct estimation of killed insects in 72 hours or by using an adhesive tape to count the number of flies on its surface prior to and after conducting the test.
# [2] = system: Candida albicans; assay: fungicidal activity, laboratory test on Sabouraud medium; assay type: cell-based; conditions: 0.01% solution in water
# Protocol: (§1) A fungicidal composition based on this compound was prepared, which was a 0.01% solution of the compound in water. […] For testing it the Petri dishes containing Sabourand growth medium were inoculated by using suspension of microorganisms containing 5x10⁷ cells of fungi in 1 ml.
# (§2) The restricted surface areas (7 mm in diameter) were coated with the composition by means of a small metal spatula 4x4 mm in size. In a day of incubating it at 37°C in the thermostat the composition inhibited the growth of yeast-like fungi. An antifungal activity of the composition was specified according to the method of 10-fold serial dilution using Sabourand's liquid medium in 2 ml of which 2x10⁵ cells were introduced.
# [3] = system: Candida Tropi-calis; assay: fungicidal activity, large-scale test on surfaces of articles; assay type: cell-based, Candida tropicalis; conditions: 0.01% solution in water
# Protocol: (§3) The large-scale tests were carried out by using Candida albicans and Candida tropicalis strains, with their 2-day agar culture being diluted with an isotonic sodium chloride solution up to the concentration of 5x10⁷ cells in 1 ml. The culture suspension was laid on the surface (7 mm in diameter) of articles made of ceramics, metal, wood and rubber as well as a cotton, flannel and woollen cloth which were presterilized.
# (§4) In a day after incubation from the treated areas washings were taken with a cotton-gauze tampon which was moistened with Sabouraud's liquid medium, then they were immersed into the tubes containing a similar medium, and placed into thermostat at 37°C for 2 days. Thereafter, the inoculum was transfered onto a solified Sabouraud agar, and the values of growth were recorded according to a conventional procedure. The test data of the composition according to the invention over a known composition (zineb) and the control are given in Table 3.
# [4] = system: Candida Tropi-calis; assay: fungicidal activity, laboratory test on Sabouraud medium; assay type: cell-based, Candida tropicalis; conditions: 0.01% solution in water
# Protocol: as §1, §2
# [5] = system: Candida albicans; assay: fungicidal activity, large-scale test on surfaces of articles; assay type: cell-based; conditions: 0.01% solution in water
# Protocol: as §3, §4
# [6] = system: domestic flies; assay: insecticidal activity, laboratory test in gauze boxes; assay type: in vivo; conditions: for Death of flies, % Tests in laboratory: 2% solution in 5% aqueous glucose, observed in 48-72 hours
# Protocol: The compound obtained was used for preparing an insecticidal composition which was a 2% solution of the compound in a 5% aqueous solution of glucose. The test for activity of the insecticidal composition of the invention was conducted on domestic flies. Into gause 10x10 cm boxes /6 boxes/ 6-7-day flies were placed in the number of 50 individuals per box, which were of both sexes. The Petri dishes containing the insecticidal composition of the invention were put into 5 boxes. The observations for fly death were carried out in 48-72 hours. The Petri dish containing a 5% aqueous glucose solution were placed into a control box.
# [7] = system: pig ascarid eggs; assay: microbe, parasite or virus in culture
# [8] = system: Hepatitis B virus; assay: virulicidal activity, HBsAg titer in blood serum
# Description: table ratio instead of the test composition.
# [9] = system: Influenza A viruses; assay: virulicidal activity, virus titer in allantoic fluid by hemagglutination-inhibition
# [10] = system: Meningopneumonia virus; parameters: species or system meningopneumonia pathogene/MP strain/
# [11] = system: poliomyelitis virus
# [12] = system: Escherichia coli; assay: microbe, parasite or virus in culture; assay type: cell-based; conditions: for killing at 0.2 %: read-out: Death of micro-organisms, % E.coli
# [13] = system: Staphylococcus aureus; assay: microbe, parasite or virus in culture; assay type: cell-based; conditions: for killing at 0.2 %: read-out: Death of micro-organisms, % S.aureus
# [14] = 24 h, read-out: Death of ascaridal eggs, % after 24 hours
# [15] = 48 h, read-out: Death of ascaridal eggs, % after 48 hours
# [16] = concentration 1.0 % by mass, 30 min
# [17] = concentration 1.0 % by mass, 60 min
# [18] = concentration 2.0 % by mass, 30 min
# [19] = concentration 2.0 % by mass, 60 min
structure (smiles),measurement,setting,value
"COP(=NC(CO)C(O)c1ccc([N+](=O)[O-])cc1)(OC)OC (centres unmarked) [Example 1, trimethoxyphosphazo-1-para-nitrophenyl-1,3-propandiol]","Death of flies, % Tests in large-scale",[1],87.0%
same,"Growth inhibition of fungal colonies, % Candida albicans Laboratory tests",[2],100.0%
same,"Growth inhibition of fungal colonies, % Candida Tropi-calis Large-scale tests",[3],100.0%
same,"Growth inhibition of fungal colonies, % Candida Tropi-calis Laboratory tests",[4],100.0%
same,"Growth inhibition of fungal colonies, % Candida albicans Large-scale tests",[5],100.0%
same,"Death of flies, % Tests in laboratory",[6],89.1%
"CCOP(=NC(CO)C(O)c1ccc([N+](=O)[O-])cc1)(OCC)OCC (centres unmarked) [Example 2, triethoxyphosphazo-1-para-nitrophenyl-1,3-propandiol]","Death of flies, % Tests in large-scale",[1],83.0%
same,"Growth inhibition of fungal colonies, % Candida albicans Laboratory tests",[2],100.0%
same,"Growth inhibition of fungal colonies, % Candida Tropi-calis Large-scale tests",[3],100.0%
same,"Growth inhibition of fungal colonies, % Candida Tropi-calis Laboratory tests",[4],100.0%
same,"Growth inhibition of fungal colonies, % Candida albicans Large-scale tests",[5],100.0%
same,"Death of flies, % Tests in laboratory",[6],84.7%
"CCCOP(=NC(CCl)C(O)c1ccc([N+](=O)[O-])cc1)(OCCC)OCCC (centres unmarked) [Example 5, tri-n-propoxyphosphazo-1-para-nitrophenyl-1-chloro-3-propanol]","Death of flies, % Tests in large-scale",[1],93.0%
same,killing at 2 %,[7]; [14],100%
same,killing at 2 %,[7]; [15],100%
same,Virulicidal activity (%) under exposure 30 min,[8]; concentration 1.0 % by mass,12.5%
same,Virulicidal activity (%) under exposure 60 min,[8]; concentration 1.0 % by mass,50.0%
same,Virulicidal activity (%) under exposure 30 min,[8]; concentration 2.0 % by mass,"25,0%"
same,Virulicidal activity (%) under exposure 60 min,[8]; concentration 2.0 % by mass,"75,0%"
same,"Death of flies, % Tests in laboratory",[6],94.5%
same,Virulicidal activity (%) under exposure 30 min,[9]; concentration 1.0 % by mass,12.5%
same,Virulicidal activity (%) under exposure 60 min,[9]; concentration 1.0 % by mass,50.0%
same,Virulicidal activity (%) under exposure 30 min,[9]; concentration 2.0 % by mass,50.0%
same,Virulicidal activity (%) under exposure 60 min,[9]; concentration 2.0 % by mass,75.0%
same,Virulicidal activity (%) under exposure 60 min,[10],50.0% and 75.0%
"O=[N+]([O-])c1ccc(C(Cl)C(CCl)N=P(OC(CCl)c2ccccc2)(OC(CCl)c2ccccc2)OC(CCl)c2ccccc2)cc1 (centres unmarked) [Example 14, tris-/2-chloro-1-phenoxy/phosphazo-1-para-nitrophenyl-1,3-dichloropropane]","Death of flies, % Tests in large-scale",[1],70.0%
same,Virulicidal activity (%) under exposure 30 min,[8]; concentration 1.0 % by mass,100.0%
same,Virulicidal activity (%) under exposure 60 min,[8]; concentration 1.0 % by mass,100.0%
same,Virulicidal activity (%) under exposure 30 min,[8]; concentration 2.0 % by mass,"100,0%"
same,Virulicidal activity (%) under exposure 60 min,[8]; concentration 2.0 % by mass,"100,0%"
same,"Death of flies, % Tests in laboratory",[6],71.3%
same,Virulicidal activity (%) under exposure 30 min,[9]; concentration 1.0 % by mass,75.0%
same,Virulicidal activity (%) under exposure 60 min,[9]; concentration 1.0 % by mass,93.8%
same,Virulicidal activity (%) under exposure 30 min,[9]; concentration 2.0 % by mass,93.8%
same,Virulicidal activity (%) under exposure 60 min,[9]; concentration 2.0 % by mass,100.0%
same,Virulicidal activity (%) under exposure 30 min,[10],50.0% and 90.0%
same,Virulicidal activity (%) under exposure 60 min,[10],75.0% and 100.0%
COP(=NC(CCl)C(O)c1ccc([N+](=O)[O-])cc1)(OC)OC (centres unmarked) [Example 15],"Growth inhibition of fungal colonies, % Candida albicans Laboratory tests",[2],100.0%
same,"Growth inhibition of fungal colonies, % Candida Tropi-calis Large-scale tests",[3],100.0%
same,"Growth inhibition of fungal colonies, % Candida Tropi-calis Laboratory tests",[4],100.0%
same,"Growth inhibition of fungal colonies, % Candida albicans Large-scale tests",[5],100.0%
O=C(N[C@H](COP(=N[C@@H](CO)[C@@H](O)c1ccc([N+](=O)[O-])cc1)(OC[C@@H](NC(=O)C(Cl)Cl)[C@H](O)c1ccc([N+](=O)[O-])cc1)OC[C@@H](NC(=O)C(Cl)Cl)[C@H](O)c1ccc([N+](=O)[O-])cc1)[C@H](O)c1ccc([N+](=O)[O-])cc1)C(Cl)Cl [Example 27],killing at 2 %,[7]; [14],100%
same,killing at 2 %,[7]; [15],100%
same,"Death of flies, % after 48 hours","[6]; concentration 2.0 % by mass, after 48 hours",34.0%
same,"Death of flies, % after 72 hours","[6]; concentration 2.0 % by mass, after 72 hours",62.0%
same,Virulicidal activity (%) under exposure 30 min,[9]; concentration 1.0 % by mass,100.0%
same,Virulicidal activity (%) under exposure 30 min,[9]; concentration 2.0 % by mass,100.0%
"O=[N+]([O-])c1ccc(C(O)C(CO)N=P(Nc2ccccc2)(Nc2ccccc2)Nc2ccccc2)cc1 (centres unmarked) [Example 29, trianilidophosphazo-1-para-nitrophenyl-1,3-propanediol]",killing at 2 %,[7]; [14],97.6%
same,killing at 2 %,[7]; [15],100%
"O=[N+]([O-])c1ccc(C(O)C(CO)N=P(Cl)(Oc2ccccc2)Oc2ccccc2)cc1 (centres unmarked) [Example 36, diphenoxychlorophosphazo-1-nitrophenyl-1,3-dihydroxypropyl]",Virulicidal activity (%) to poliomyelitis virus under exposure of 30 min,[11],50.0% and 90.0%
same,Virulicidal activity (%) to poliomyelitis virus under exposure of 60 min,[11],80.0% and 90.0%
same,"Death of micro-organisms, % E.coli",[12],100.0%
same,"Death of micro-organisms, % S.aureus",[13],90.0%
"O=[N+]([O-])c1ccc(C(O)C(CO)N=P(Cl)(Oc2ccc(Cl)cc2)Oc2ccc(Cl)cc2)cc1 (centres unmarked) [Example 37, di-para-chlorophenoxychlorophosphazo-1-para-nitrophenyl-1,3-dihydroxyisopropyl]",Virulicidal activity (%) to poliomyelitis virus under exposure of 30 min,[11],60.0% and 90.0%
same,Virulicidal activity (%) to poliomyelitis virus under exposure of 60 min,[11],90.0% and 100.0%
same,"Death of micro-organisms, % E.coli",[12],100.0%
same,"Death of micro-organisms, % S.aureus",[13],100.0%
"O=[N+]([O-])c1ccc(C(O)C(CO)N=P(Cl)(Cl)Oc2ccc(Cl)cc2)cc1 (centres unmarked) [Example 39, para-chlorophenoxydichlorophosphazo-1-para-nitrophenyl-1,3-dihydroxyisopropyl]",Virulicidal activity (%) to poliomyelitis virus under exposure of 30 min,[11],70.0% and 95.0%
same,Virulicidal activity (%) to poliomyelitis virus under exposure of 60 min,[11],90.0% and 100.0%
same,"Death of micro-organisms, % E.coli",[12],100.0%
same,"Death of micro-organisms, % S.aureus",[13],100.0%
"Cc1ccc(OP(=NC(CO)C(O)c2ccc([N+](=O)[O-])cc2)(Oc2ccc(C)cc2)Oc2ccc(C)cc2)cc1 (centres unmarked) [Example 40, tri-para-methylphenoxy-1-para-nitrophenyl-1,3-dihydroxyisopropyl]",Virulicidal activity (%) to poliomyelitis virus under exposure of 30 min,[11]; [16],50.0%
same,Virulicidal activity (%) to poliomyelitis virus under exposure of 60 min,[11]; [17],70.0%
same,Virulicidal activity (%) to poliomyelitis virus under exposure of 30 min,[11]; [18],80.0%
same,Virulicidal activity (%) to poliomyelitis virus under exposure of 60 min,[11]; [19],90.0%
same,killing at 0.2 %,[12]; Escherichia coli,90%
same,killing at 0.2 %,[13]; Staphylococcus aureus,70%
"O=[N+]([O-])c1ccc(C(O)C(CO)N=P(Oc2ccc(Cl)cc2)(Oc2ccc(Cl)cc2)Oc2ccc(Cl)cc2)cc1 (centres unmarked) [Example 41, tri-para-chlorophenoxyphosphazo-1-para-nitrophenyl-1,3-dihydroxyisopropyl]",Virulicidal activity (%) to poliomyelitis virus under exposure of 30 min,[11]; [16],50.0%
same,Virulicidal activity (%) to poliomyelitis virus under exposure of 60 min,[11]; [17],80.0%
same,Virulicidal activity (%) to poliomyelitis virus under exposure of 30 min,[11]; [18],90.0%
same,Virulicidal activity (%) to poliomyelitis virus under exposure of 60 min,[11]; [19],100.0%
same,killing at 0.2 %,[12]; Escherichia coli,100%
same,killing at 0.2 %,[13]; Staphylococcus aureus,90%
"CNC(=S)S [carbathione, dihydrate, reference compound]",killing at 2 %,[7]; [14],60%
same,killing at 2 %,[7]; [15],80%
"O=S(=O)(NCl)c1ccccc1 [sodium N-chlorobenzenesulfamide, reference compound]",Virulicidal activity (%) to poliomyelitis virus under exposure of 30 min,[11]; [16],9.0%
same,Virulicidal activity (%) to poliomyelitis virus under exposure of 60 min,[11]; [17],25.0%
same,Virulicidal activity (%) to poliomyelitis virus under exposure of 30 min,[11]; [18],12.5%
same,Virulicidal activity (%) to poliomyelitis virus under exposure of 60 min,[11]; [19],50.0%
same,killing at 0.2 %,[12]; Escherichia coli,100%
same,killing at 0.5 %,"[12]; Escherichia coli, read-out: Death of micro-organisms, % Escherichia coli",100%
same,Virulicidal activity (%) under exposure 30 min,[8]; concentration 1.0 % by mass,9.0%
same,Virulicidal activity (%) under exposure 60 min,[8]; concentration 1.0 % by mass,25.0%
same,Virulicidal activity (%) under exposure 30 min,[8]; concentration 2.0 % by mass,12.5%
same,Virulicidal activity (%) under exposure 60 min,[8]; concentration 2.0 % by mass,50.0%
same,Virulicidal activity (%) under exposure 30 min,[9]; concentration 1.0 % by mass,12.5% and 22.0%
same,Virulicidal activity (%) under exposure 60 min,[9]; concentration 1.0 % by mass,25.0%
same,Virulicidal activity (%) under exposure 30 min,[9]; concentration 2.0 % by mass,25.0% and 25.1%
same,Virulicidal activity (%) under exposure 60 min,[9]; concentration 2.0 % by mass,50.0%
same,Virulicidal activity (%) under exposure 60 min,[10],25.0% and 50.0%
same,killing at 0.2 %,[13]; Staphylococcus aureus,90%
same,killing at 0.5 %,"[13]; Staphylococcus aureus, read-out: Death of micro-organisms, % Staphylo-cocus aureus",100%
